For one assay, the target named is Activin receptor type-1 (Homo sapiens, UniProt Q04771). The assay can be described thus: Navigating the Kinome. Panel member name: ACVR1. In kind it is functional.
The target in assay [1] is Mitogen-activated protein kinase kinase kinase kinase 2 (Homo sapiens, UniProt Q12851). Type of assay: functional.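 Further: measured as one member of a kinome-wide kinase panel, with MAP4K2 as the panel entry.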
Assay [2] addresses Calcium/calmodulin-dependent protein kinase type II subunit delta (Homo sapiens, UniProt Q13557). In kind it is functional.
Assay [3] deals with Serine/threonine-protein kinase TBK1 (Homo sapiens, UniProt Q9UHD2). Put plainly: Navigating the Kinome. Panel member name: TBK1. In kind it is functional.
The target in assay [4] is Mitogen-activated protein kinase kinase kinase kinase 5 (Homo sapiens, UniProt Q9Y4K4). In kind it is functional.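 Further: measured as one member of a kinome-spanning kinase panel.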
Assay [5] has as its target Tyrosine-protein kinase SYK (Homo sapiens, UniProt P43405). Type of assay: functional.
The target in assay [6] is Mitogen-activated protein kinase kinase kinase kinase 4 (Homo sapiens, UniProt O95819). Type of assay: functional.
Assay [7] has as its target Dual specificity protein kinase CLK2 (Homo sapiens, UniProt P49760). In kind it is functional.
The target of assay [8] is Homeodomain-interacting protein kinase 2 (Homo sapiens, UniProt Q9H2X6). Type of assay: functional.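 Further: measured within a kinome-wide kinase profiling panel, HIPK2 being one panel member.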
Assay [9] concerns the target Serine/threonine-protein kinase Nek2 (Homo sapiens, UniProt P51955). Type of assay: functional.
For assay [10], the target named is Serine/threonine-protein kinase 3 (Homo sapiens, UniProt Q13188). Type of assay: functional.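 Further: measured as one member of a kinome-wide kinase panel.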
The target of assay [11] is Dual specificity mitogen-activated protein kinase kinase 1 (Homo sapiens, UniProt Q02750). The assay can be described thus: Navigating the Kinome. Panel member name: MAP2K1. Type of assay: functional.
The target in assay [12] is Vascular endothelial growth factor receptor 2 (Homo sapiens, UniProt P35968). In kind it is functional.
The target in assay [13] is Tyrosine-protein kinase receptor TYRO3 (Homo sapiens, UniProt Q06418). In kind it is functional.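 Further: TYRO3 value obtained as one member of a kinome-wide profiling panel.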
For assay [14], the target named is Maternal embryonic leucine zipper kinase (Homo sapiens, UniProt Q14680). In kind it is functional.
Assay [15] concerns the target Glycogen synthase kinase-3 beta (Homo sapiens, UniProt P49841). In kind it is functional.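 Further: value comes from a broad kinome profiling panel, with GSK3B as the panel member.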
Assay [16] concerns the target 5'-AMP-activated protein kinase catalytic subunit alpha-1 (Homo sapiens, UniProt Q13131). Type of assay: functional.
Assay [17] concerns the target Protein kinase C theta type (Homo sapiens, UniProt Q04759). The assay can be described thus: Navigating the Kinome. Panel member name: PRKCQ. Type of assay: functional.
A further assay has as its target Misshapen-like kinase 1 (Homo sapiens, UniProt Q8N4C8). In kind it is functional.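 Further: kinome panel screen with MINK as the panel member.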
For assay [18], the target named is Mitogen-activated protein kinase 9 (Homo sapiens, UniProt P45984). Type of assay: functional.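 Further: value from a kinome panel profiling assay, MAPK9 panel entry.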
For assay [19], the target named is Leucine-rich repeat serine/threonine-protein kinase 2 (Homo sapiens, UniProt Q5S007). In kind it is functional.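 Further: value from a broad kinome-wide panel profiling study in which LRRK2 was one of the kinases tested.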
Assay [20] concerns the target Fibroblast growth factor receptor 1 (Homo sapiens, UniProt P11362). Type of assay: functional.
In assay [21] the target is Mitogen-activated protein kinase 14 (Homo sapiens, UniProt Q16539). Type of assay: functional.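 Further: part of a kinome-wide panel, MAPK14 entry.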
Assay [22] addresses Cyclin-dependent kinase 7 (Homo sapiens, UniProt P50613). Type of assay: functional.
The target of assay [23] is Serine/threonine-protein kinase 17A (Homo sapiens, UniProt Q9UEE5). Type of assay: functional.
The next assay concerns the target Activated CDC42 kinase 1 (Homo sapiens, UniProt Q07912). Put plainly: Navigating the Kinome. Panel member name: ACK1. Type of assay: functional.
Assay [24] addresses cAMP-dependent protein kinase catalytic subunit alpha (Homo sapiens, UniProt P17612). In kind it is functional.
In assay [25] the target is Dual specificity mitogen-activated protein kinase kinase 2 (Homo sapiens, UniProt P36507). Put plainly: Navigating the Kinome. Panel member name: MAP2K2. Type of assay: functional.
In assay [26] the target is Glycogen synthase kinase-3 alpha (Homo sapiens, UniProt P49840). In kind it is functional.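 Further: GSK3A result taken from a broad kinome-wide kinase panel.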
Assay [27] concerns the target Tyrosine-protein kinase ABL1 (Homo sapiens, UniProt P00519). In kind it is functional.
Assay [28] addresses Casein kinase I isoform alpha (Homo sapiens, UniProt P48729). In kind it is functional.
Assay [29] addresses Protein kinase C gamma type (Homo sapiens, UniProt P05129). In kind it is functional.
Assay [30] deals with Serine/threonine-protein kinase PAK 1 (Homo sapiens, UniProt Q13153). Type of assay: functional.
In assay [31] the target is Serine/threonine-protein kinase BRSK1 (Homo sapiens, UniProt Q8TDC3). Type of assay: functional.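 Further: measured within a kinome-wide kinase panel, with the target listed as KIAA1811.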
Assay [32] deals with Casein kinase II subunit alpha (Homo sapiens, UniProt P68400). Type of assay: functional.
In assay [33] the target is Mitogen-activated protein kinase 1 (Homo sapiens, UniProt P28482). Type of assay: functional.
The target in assay [34] is MAP kinase-activated protein kinase 2 (Homo sapiens, UniProt P49137). In kind it is functional.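 Further: measured as one member of a kinome-wide kinase panel.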
Assay [35] concerns the target Proto-oncogene tyrosine-protein kinase Src (Homo sapiens, UniProt P12931). In kind it is functional.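 Further: SRC entry within a kinome-wide kinase profiling panel.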
Assay [36] deals with Receptor tyrosine-protein kinase erbB-4 (Homo sapiens, UniProt Q15303). In kind it is functional.
In assay [37] the target is Calcium/calmodulin-dependent protein kinase type 1 (Homo sapiens, UniProt Q14012). In kind it is functional.
Assay [38] has as its target Heat shock protein HSP 90-alpha (Homo sapiens, UniProt P07900). Type of assay: functional, organism-based.
A short description of a further assay: cells. In kind it is functional, cell-based.
Assay [39] concerns the target Serine/threonine-protein phosphatase (Candida dubliniensis (strain CD36 / CBS 7987 / NCPF 3949 / NRRLY-17841) (Yeast), UniProt B9W6M3). The assay can be described thus: calcineurin pathway inhibitors in yeast reporter, dose response, S. cerevisiae, CDRE-lacZ, luminescence, secondary (AID 2388).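 Further: yeast reporter cells carrying a calcineurin-responsive lacZ construct stimulated with calcium chloride; luminescent beta-galactosidase reporter signal in whole cells rather than isolated phosphatase activity; potency for inhibition where a drop in reporter signal means calcineurin blockade.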 In kind it is functional, cell-based.
A short description of assay [40]: Counterscreen for AddAB inhibitors: absorbance-based bacterial cell-based high throughput dose response assay for inhibitors of bacterial viability. [Related pubchem assays (depositor defined):AID435030, AID449728, AID449731, AID488942, AID488955, AID488956]. In kind it is functional. On the technique in general: The purpose of a counterscreen is to sort out artefacts and off-target activity.

Assay [41] can be described thus: C. albicans growth with fluconazole, confirmation, fluorescence, retest (AID 2467). In kind it is functional, cell-based.

Activity calls are given as the source filed them.

Usually Ki stands for the dissociation constant of the complex between target and ligand, obtained from inhibition or displacement. Broadly, the AC50 is the midpoint of the concentration-response curve, whichever way the signal moves. What is called EC50 is the midpoint of the concentration-response curve. As a reminder, the IC50 is the concentration that inhibits the measured activity by half.

Chain of Fibroblast growth factor receptor 1 (P11362 whole entry): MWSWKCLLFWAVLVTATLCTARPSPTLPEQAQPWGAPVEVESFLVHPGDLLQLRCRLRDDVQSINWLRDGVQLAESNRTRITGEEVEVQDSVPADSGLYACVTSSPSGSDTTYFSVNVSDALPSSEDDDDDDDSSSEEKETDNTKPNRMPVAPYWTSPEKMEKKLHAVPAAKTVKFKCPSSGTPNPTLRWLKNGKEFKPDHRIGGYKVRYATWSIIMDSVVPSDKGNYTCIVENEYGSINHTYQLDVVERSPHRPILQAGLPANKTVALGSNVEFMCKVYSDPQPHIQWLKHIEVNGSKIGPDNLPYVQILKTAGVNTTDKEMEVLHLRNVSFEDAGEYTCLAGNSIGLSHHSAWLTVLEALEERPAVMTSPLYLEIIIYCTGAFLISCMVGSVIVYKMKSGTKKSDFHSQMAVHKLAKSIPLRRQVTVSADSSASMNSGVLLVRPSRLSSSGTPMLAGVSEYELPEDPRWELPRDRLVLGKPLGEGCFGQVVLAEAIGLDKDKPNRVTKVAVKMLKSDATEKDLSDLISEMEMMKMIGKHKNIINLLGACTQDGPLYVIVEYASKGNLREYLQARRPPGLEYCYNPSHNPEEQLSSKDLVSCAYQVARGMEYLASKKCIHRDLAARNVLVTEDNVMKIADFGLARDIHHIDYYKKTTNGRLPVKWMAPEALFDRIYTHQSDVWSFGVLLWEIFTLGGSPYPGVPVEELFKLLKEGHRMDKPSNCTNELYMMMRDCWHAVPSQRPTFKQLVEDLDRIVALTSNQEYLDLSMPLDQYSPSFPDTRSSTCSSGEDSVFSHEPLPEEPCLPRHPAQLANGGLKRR
Chain of Tyrosine-protein kinase ABL1 (P00519 whole entry, canonical isoform): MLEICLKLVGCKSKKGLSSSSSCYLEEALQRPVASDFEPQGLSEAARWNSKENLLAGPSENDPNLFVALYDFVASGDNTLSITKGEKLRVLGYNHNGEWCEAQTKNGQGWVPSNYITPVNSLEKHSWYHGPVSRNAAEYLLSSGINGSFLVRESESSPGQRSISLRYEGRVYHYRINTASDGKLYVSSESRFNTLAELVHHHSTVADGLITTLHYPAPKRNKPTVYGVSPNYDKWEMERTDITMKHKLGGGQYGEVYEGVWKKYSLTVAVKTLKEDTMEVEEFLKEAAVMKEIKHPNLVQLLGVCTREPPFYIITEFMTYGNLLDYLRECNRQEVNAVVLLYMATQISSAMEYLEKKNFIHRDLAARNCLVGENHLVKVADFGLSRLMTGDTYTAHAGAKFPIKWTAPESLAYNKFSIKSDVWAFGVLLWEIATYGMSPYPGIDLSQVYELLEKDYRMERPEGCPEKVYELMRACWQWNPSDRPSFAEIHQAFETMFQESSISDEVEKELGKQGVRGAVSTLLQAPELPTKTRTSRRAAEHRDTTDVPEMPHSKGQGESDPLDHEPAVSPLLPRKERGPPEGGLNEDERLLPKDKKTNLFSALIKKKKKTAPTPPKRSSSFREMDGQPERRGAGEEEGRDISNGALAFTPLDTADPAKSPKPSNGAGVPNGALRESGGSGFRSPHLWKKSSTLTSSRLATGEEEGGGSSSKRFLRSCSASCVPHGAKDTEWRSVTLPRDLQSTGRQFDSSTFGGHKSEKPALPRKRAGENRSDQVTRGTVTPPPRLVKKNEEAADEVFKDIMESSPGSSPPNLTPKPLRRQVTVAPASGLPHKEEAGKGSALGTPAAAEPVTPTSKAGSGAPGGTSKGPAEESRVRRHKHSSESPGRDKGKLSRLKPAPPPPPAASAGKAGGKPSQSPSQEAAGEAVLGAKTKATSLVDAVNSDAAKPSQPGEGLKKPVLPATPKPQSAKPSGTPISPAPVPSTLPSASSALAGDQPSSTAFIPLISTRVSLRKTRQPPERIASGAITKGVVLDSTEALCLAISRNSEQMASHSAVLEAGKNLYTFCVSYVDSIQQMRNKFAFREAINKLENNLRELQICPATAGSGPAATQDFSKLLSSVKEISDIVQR
Chain of Serine/threonine-protein kinase TBK1 (Q9UHD2 whole entry): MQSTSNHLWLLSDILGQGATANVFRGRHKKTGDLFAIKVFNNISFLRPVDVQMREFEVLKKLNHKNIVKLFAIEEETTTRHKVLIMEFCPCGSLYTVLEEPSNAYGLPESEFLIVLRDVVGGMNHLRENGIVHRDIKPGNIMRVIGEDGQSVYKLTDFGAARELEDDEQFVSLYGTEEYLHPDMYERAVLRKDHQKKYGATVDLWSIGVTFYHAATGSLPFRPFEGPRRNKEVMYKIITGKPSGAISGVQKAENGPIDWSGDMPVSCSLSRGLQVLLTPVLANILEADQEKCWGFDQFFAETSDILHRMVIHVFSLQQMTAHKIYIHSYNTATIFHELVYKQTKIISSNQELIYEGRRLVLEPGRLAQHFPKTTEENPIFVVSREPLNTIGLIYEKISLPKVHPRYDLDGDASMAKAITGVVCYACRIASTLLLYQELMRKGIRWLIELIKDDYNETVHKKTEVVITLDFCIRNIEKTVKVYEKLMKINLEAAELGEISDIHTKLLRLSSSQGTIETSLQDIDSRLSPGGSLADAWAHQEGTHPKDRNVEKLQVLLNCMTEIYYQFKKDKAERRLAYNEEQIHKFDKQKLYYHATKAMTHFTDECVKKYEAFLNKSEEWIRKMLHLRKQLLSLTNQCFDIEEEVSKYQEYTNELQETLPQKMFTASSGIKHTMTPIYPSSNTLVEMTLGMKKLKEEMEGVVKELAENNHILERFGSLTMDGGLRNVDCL
Chain of Mitogen-activated protein kinase 9 (P45984 whole entry): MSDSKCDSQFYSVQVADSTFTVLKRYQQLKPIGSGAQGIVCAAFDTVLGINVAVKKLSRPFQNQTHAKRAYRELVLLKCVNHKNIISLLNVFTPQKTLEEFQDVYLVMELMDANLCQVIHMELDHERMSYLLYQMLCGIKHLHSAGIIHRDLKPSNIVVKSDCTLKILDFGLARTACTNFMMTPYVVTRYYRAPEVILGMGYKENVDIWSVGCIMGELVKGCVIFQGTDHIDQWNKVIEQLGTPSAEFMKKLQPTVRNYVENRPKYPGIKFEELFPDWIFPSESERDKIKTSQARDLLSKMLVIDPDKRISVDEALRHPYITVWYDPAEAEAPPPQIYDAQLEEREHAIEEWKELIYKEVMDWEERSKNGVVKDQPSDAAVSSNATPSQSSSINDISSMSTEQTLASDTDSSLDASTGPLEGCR
Chain of 5'-AMP-activated protein kinase catalytic subunit alpha-1 (Q13131 whole entry): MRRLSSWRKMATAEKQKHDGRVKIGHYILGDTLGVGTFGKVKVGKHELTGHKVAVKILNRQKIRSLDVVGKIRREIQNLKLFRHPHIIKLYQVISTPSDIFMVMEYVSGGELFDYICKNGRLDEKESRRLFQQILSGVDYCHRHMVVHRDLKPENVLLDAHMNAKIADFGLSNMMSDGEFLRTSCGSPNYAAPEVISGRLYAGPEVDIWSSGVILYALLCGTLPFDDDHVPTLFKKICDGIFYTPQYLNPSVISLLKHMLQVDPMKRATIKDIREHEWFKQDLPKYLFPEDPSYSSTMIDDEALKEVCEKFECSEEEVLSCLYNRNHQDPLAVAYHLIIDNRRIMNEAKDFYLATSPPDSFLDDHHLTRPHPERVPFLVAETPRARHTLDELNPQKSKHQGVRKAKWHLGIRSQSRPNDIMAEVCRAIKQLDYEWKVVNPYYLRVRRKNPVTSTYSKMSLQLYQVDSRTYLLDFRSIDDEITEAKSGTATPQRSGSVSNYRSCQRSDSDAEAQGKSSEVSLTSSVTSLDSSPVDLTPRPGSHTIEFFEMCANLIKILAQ
Chain of Mitogen-activated protein kinase kinase kinase kinase 4 (O95819 whole entry): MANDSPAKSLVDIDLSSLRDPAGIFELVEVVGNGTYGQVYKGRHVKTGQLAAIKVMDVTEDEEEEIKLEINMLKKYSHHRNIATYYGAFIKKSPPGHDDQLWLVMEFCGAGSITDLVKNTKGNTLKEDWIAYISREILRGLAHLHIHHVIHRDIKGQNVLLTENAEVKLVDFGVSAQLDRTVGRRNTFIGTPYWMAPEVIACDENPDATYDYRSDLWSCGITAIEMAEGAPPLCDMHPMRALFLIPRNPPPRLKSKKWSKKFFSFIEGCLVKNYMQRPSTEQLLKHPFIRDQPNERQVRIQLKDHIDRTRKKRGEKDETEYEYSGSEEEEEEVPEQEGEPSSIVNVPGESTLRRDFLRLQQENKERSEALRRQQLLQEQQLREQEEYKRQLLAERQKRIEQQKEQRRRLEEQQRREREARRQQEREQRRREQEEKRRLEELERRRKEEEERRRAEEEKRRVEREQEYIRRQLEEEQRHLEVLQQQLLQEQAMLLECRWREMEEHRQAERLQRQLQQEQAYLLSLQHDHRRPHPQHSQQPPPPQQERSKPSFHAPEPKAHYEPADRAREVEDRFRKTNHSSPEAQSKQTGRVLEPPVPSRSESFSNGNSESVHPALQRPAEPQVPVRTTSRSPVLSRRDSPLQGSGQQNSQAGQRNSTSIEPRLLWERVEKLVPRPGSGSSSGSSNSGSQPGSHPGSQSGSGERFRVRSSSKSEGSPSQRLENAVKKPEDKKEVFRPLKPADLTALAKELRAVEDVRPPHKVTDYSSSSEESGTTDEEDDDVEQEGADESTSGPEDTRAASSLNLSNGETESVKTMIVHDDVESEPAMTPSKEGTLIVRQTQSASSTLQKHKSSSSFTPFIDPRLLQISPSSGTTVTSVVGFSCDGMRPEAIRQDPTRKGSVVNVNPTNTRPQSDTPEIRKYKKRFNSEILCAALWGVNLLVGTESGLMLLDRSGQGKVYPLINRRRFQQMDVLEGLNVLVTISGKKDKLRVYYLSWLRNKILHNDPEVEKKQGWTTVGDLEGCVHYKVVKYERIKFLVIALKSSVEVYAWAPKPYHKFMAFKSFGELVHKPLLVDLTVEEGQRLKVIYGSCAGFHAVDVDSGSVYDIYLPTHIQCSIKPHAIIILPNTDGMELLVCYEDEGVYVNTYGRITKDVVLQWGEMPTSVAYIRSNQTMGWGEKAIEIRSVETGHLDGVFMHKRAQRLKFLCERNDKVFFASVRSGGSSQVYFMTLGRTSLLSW

In the case of `O=C(Nc1n[nH]c2ccc(-c3cn(Cc4ccccc4)nn3)cc12)c1cc(F)ccc1F`, the Ki is 3.98 µM (active) on Activin receptor type-1; > 2.51 µM (inactive) in assay [1]; > 3.16 µM (inactive) in assay [2]; 794 nM (active) in assay [3]; 794 nM (active) in assay [4]; > 1.58 µM (inactive) in assay [5]. Further, the Ki in assay [6] is 2 µM (active); in [7], 0.126 µM (active); in assay [8], 100 nM (active); in assay [9], > 3.16 µM (inactive); in [10], > 3.16 µM (inactive); in assay [11] it was > 3.16 µM (inactive). The Ki in assay [12] was > 2.51 µM (inactive); in assay [13], > 3.16 µM (inactive); in [14], 398 nM (active); in [15], 2 nM (active); in [16], 398 nM (active); in assay [17] it was 1.58 µM (active). The Ki at Misshapen-like kinase 1 is > 2.51 µM (inactive); in assay [18] it was 1 µM (active); in assay [19], 1.26 µM (active); in assay [20], > 3.98 µM (inactive); in [21], > 3.98 µM (inactive); in assay [22] it was 200 nM (active). Moreover, the Ki in assay [23] was 200 nM (active); at Activated CDC42 kinase 1 it was > 3.98 µM (inactive); in [24] it was > 2.51 µM (inactive); in assay [25] it was > 3.98 µM (inactive); in [26] it was 3.98 nM (active); in assay [27], > 2.51 µM (inactive). Further, the inhibition constant Ki in [28] was 1.58 µM (active).

On to `CS(=O)(=O)Nc1ccc(Nc2ccc3[nH]nc(N)c3c2)cc1`, for which the Ki in assay [6] is > 5.01 µM (inactive).

As to `CS(=O)(=O)N(Cc1ccc2[nH]c(=O)c3cccn3c2c1)C1CC1`, the Ki in assay [29] was 1.26 µM (active); at Activin receptor type-1, > 3.98 µM (inactive); in assay [1] it was > 2 µM (inactive); in assay [2], 0.251 µM (active); in assay [3], > 3160 nM (inactive); in assay [4] it was 1580 nM (active). Also, the Ki is 0.316 µM (active) in [5]; > 6.31 µM (inactive) in [7]; 63.1 nM (active) in [8]; > 1.58 µM (inactive) in assay [9]; > 7.94 µM (inactive) in assay [10]; 3.16 µM (active) in assay [30]. For the same compound, the inhibition constant (Ki) in assay [31] is 200 nM (active); in assay [11], > 3.16 µM (inactive); in assay [12], > 5.01 µM (inactive); in assay [13] it was > 1.58 µM (inactive); in [14] it was 200 nM (active); in assay [15], > 2000 nM (inactive). Moreover, the Ki in [16] is > 1580 nM (inactive); in [17], > 2.51 µM (inactive); on Misshapen-like kinase 1 it was > 7.94 µM (inactive); in [32], 15.8 nM (active); in assay [18], > 3.98 µM (inactive); in assay [19], > 2.51 µM (inactive). Moreover, the Ki is > 3.98 µM (inactive) in assay [20]; > 3.98 µM (inactive) in [21]; > 7.94 µM (inactive) in assay [33]; > 3980 nM (inactive) in assay [22]; 79.4 nM (active) in [34]; 1.26 µM (active) in assay [35]. The Ki in assay [36] was > 3.98 µM (inactive); in [23], > 3980 nM (inactive); on Activated CDC42 kinase 1, > 3.98 µM (inactive); in [24], > 3.98 µM (inactive); in [25] it was > 3.98 µM (inactive); in [26], > 2000 nM (inactive). Also, the figures for the Ki in assay [27], in assay [37] and in assay [28] were > 1.58 µM (inactive), > 5.01 µM (inactive) and > 5.01 µM (inactive), respectively.

Consider `Cc1cc(NC(c2ccc(Cl)cc2)c2ccc3cccnc3c2O)no1` (stereo unspecified), for which the AC50 in [38] is 3.87 µM (active). In addition, the EC50 in the assay “cells” was 6.45 µM (active); in [39], > 180 µM (inactive); in assay [41], 741 nM (active). Moreover, the IC50 in assay [40] is > 119 µM (inactive).

(Values after ChEMBL document CHEMBL1201862, “PubChem BioAssay data set” (2004).)
